Source: ChEMBL document CHEMBL4043087 (J Med Chem, 2017)

Columns and labels:
[1] = Toxicity in Sprague-Dawley rat; settings: in vivo
[2] = Toxicity in mouse; assay type: organism-based; settings: in vivo
[3] = Therapeutic index, ratio of LD50 for toxicity in mouse to ED50 for anesthetic effect in mouse
[4] = Therapeutic index, ratio of LD50 for toxicity in Sprague-Dawley rat to ED50 for anesthetic effect in Sprague-Dawley rat; settings: read-out: Ratio LD50/ED50
[5] = tested on: Canis familiaris; assay: Anesthetic activity in Beagle dog assessed as onset time for loss of righting reflex at 75 mg/kg, administered as bolus dose; assay type: functional, Canis lupus familiaris
[6] = tested on: Sus scrofa; assay: Anesthetic activity in mini pig assessed as anesthetic duration time at 22.5 mg/kg, administered as bolus dose; assay type: functional
[7] = tested on: Sus scrofa; assay: Anesthetic activity in mini pig assessed as onset time for loss of righting reflex at 22.5 mg/kg, administered as bolus dose; assay type: functional
[8] = tested on: Rattus norvegicus; assay: Anesthetic activity in Sprague-Dawley rat assessed as loss of righting reflex; assay type: functional
[9] = tested on: Canis familiaris; assay: Anesthetic activity in Beagle dog assessed as anesthetic duration time at 75 mg/kg, administered as bolus dose; assay type: functional, Canis lupus familiaris
[10] = tested on: Sus scrofa; assay: Anesthetic activity in mini pig assessed as recovery time at 22.5 mg/kg, administered as bolus dose; assay type: functional
[11] = tested on: Canis familiaris; assay: Anesthetic activity in Beagle dog assessed as recovery time at 75 mg/kg, administered as bolus dose; assay type: functional, Canis lupus familiaris
[12] = tested on: Mus musculus; assay: Anesthetic activity in mouse model assessed as loss of righting reflex; assay type: functional
[13] = tested on: Sus scrofa; assay: Anesthetic activity in mini pig assessed as onset time for loss of righting reflex at 5 mg/kg, administered as bolus dose; assay type: functional
[14] = tested on: Canis familiaris; assay: Anesthetic activity in Beagle dog assessed as recovery time at 25 mg/kg, administered as bolus dose; assay type: functional, Canis lupus familiaris
[15] = tested on: Canis familiaris; assay: Anesthetic activity in Beagle dog assessed as anesthetic duration time at 25 mg/kg, administered as bolus dose; assay type: functional, Canis lupus familiaris
[16] = tested on: Canis familiaris; assay: Anesthetic activity in Beagle dog assessed as onset time for loss of righting reflex at 25 mg/kg, administered as bolus dose; assay type: functional, Canis lupus familiaris
[17] = tested on: Sus scrofa; assay: Anesthetic activity in mini pig assessed as recovery time at 5 mg/kg, administered as bolus dose; assay type: functional
[18] = tested on: Sus scrofa; assay: Anesthetic activity in mini pig assessed as anesthetic duration time at 5 mg/kg, administered as bolus dose; assay type: functional
[19] = tested on: Sus scrofa; assay: Anesthetic activity in mini pig assessed as anesthetic duration time at 4 mg/kg, administered as bolus dose; assay type: functional
[20] = tested on: Canis familiaris; assay: Anesthetic activity in Beagle dog assessed as recovery time at 12.5 mg/kg, administered as bolus dose; assay type: functional, Canis lupus familiaris
[21] = tested on: Sus scrofa; assay: Anesthetic activity in mini pig assessed as onset time for loss of righting reflex at 4 mg/kg, administered as bolus dose; assay type: functional
[22] = tested on: Canis familiaris; assay: Anesthetic activity in Beagle dog assessed as onset time for loss of righting reflex at 12.5 mg/kg, administered as bolus dose; assay type: functional, Canis lupus familiaris
[23] = tested on: Sus scrofa; assay: Anesthetic activity in mini pig assessed as recovery time at 4 mg/kg, administered as bolus dose; assay type: functional
[24] = tested on: Canis familiaris; assay: Anesthetic activity in Beagle dog assessed as anesthetic duration time at 12.5 mg/kg, administered as bolus dose; assay type: functional, Canis lupus familiaris

CC(C)c1cccc(C(C)C)c1OCOP(=O)([O-])[O-].[Na+].[Na+] [FOSPROPOFOL DISODIUM]
LD50 [1]: 189 mg/kg
LD50 [2]: 220 mg/kg
Ratio LD50/ED50 [3]: 2.3
selectivity ratio [4]: 4.61
Time [5]: 2.1 min
Time [6]: 72.6 min
Time [7]: 1.6 min
ED50 [8]: 41 mg/kg
Time [9]: 80.4 min
Time [10]: 6 min
Time [11]: 7.3 min
ED50 [12]: 95 mg/kg

CC(C)c1cccc([C@H](C)C2CC2)c1OCOP(=O)([O-])[O-].[Na+].[Na+]
Time [13]: 1.6 min
Time [14]: 11.2 min
LD50 [2]: 86.5 mg/kg
Time [15]: 72.2 min
Ratio LD50/ED50 [3]: 4.2
Time [16]: 0.7 min
selectivity ratio [4]: 4.74
Time [17]: 4.8 min
ED50 [8]: 12.9 mg/kg
Time [18]: 68.2 min
ED50 [12]: 20.4 mg/kg

C[C@@H](c1cccc([C@H](C)C2CC2)c1OCOP(=O)([O-])[O-])C1CC1.[Na+].[Na+]
LD50 [1]: 40.4 mg/kg
Time [19]: 65.8 min
LD50 [2]: 42.5 mg/kg
Ratio LD50/ED50 [3]: 3.6
Time [20]: 3.3 min
Time [21]: 3 min
Time [22]: 0.9 min
selectivity ratio [4]: 5.51
ED50 [8]: 7.34 mg/kg
Time [23]: 9.6 min
ED50 [12]: 11.7 mg/kg
Time [24]: 70.2 min
